According to PubChem BioAssay AID330 (DTP/NCI, 2004):
“And” between values parts separate entries of the source, which are not always exact repeats. Equal entries are not always repeated. Toxic doses and inconclusive results are not listed.

Test system: P388 leukemia ip, CD2F1 mice, survival T/C
Test: NCI In Vivo Anticancer Drug Screen. Data for tumor model P388 Leukemia (intraperitoneal) in CD2F1 (CDF1) mice
Conditions: endpoint: median survival time, higher = longer survival
Method in brief: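 Mice carrying the transplanted tumor received test compound or vehicle. Survival was recorded in each group, and the value is the treated-group measurement divided by that of the vehicle-treated control group.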

[1] = dose: 25.0 mg/kg/injection, schedule: Q01DX005 (ip), vehicle: saline with Tween-80
[2] = dose: 50.0 mg/kg/injection, schedule: Q01DX005 (ip), vehicle: saline with Tween-80
[3] = dose: 100.0 mg/kg/injection, schedule: Q01DX005 (ip), vehicle: saline with Tween-80
[4] = dose: 100.0 mg/kg/injection, schedule: Q04DX003 (ip), vehicle: saline with Tween-80
[5] = dose: 60.0 mg/kg/injection, schedule: Q01DX005 (ip), vehicle: saline with Tween-80
[6] = dose: 120.0 mg/kg/injection, schedule: Q01DX005 (ip), vehicle: saline with Tween-80
[7] = dose: 240.0 mg/kg/injection, schedule: Q01DX005 (ip), vehicle: saline with Tween-80
[8] = dose: 50.0 mg/kg/injection, schedule: Q01DX009 (ip), vehicle: saline with Tween-80
[9] = dose: 100.0 mg/kg/injection, schedule: Q01DX009 (ip), vehicle: saline with Tween-80
[10] = dose: 50.0 mg/kg/injection, schedule: Q01DX009 (ip), vehicle: Klucel (hydroxypropylcellulose) (HPC)
[11] = dose: 100.0 mg/kg/injection, schedule: Q01DX009 (ip), vehicle: Klucel (hydroxypropylcellulose) (HPC)
[12] = dose: 200.0 mg/kg/injection, schedule: Q01DX009 (ip), vehicle: Klucel (hydroxypropylcellulose) (HPC)
[13] = dose: 50.0 mg/kg/injection, schedule: Q04DX002 (ip), vehicle: saline with Tween-80
[14] = dose: 100.0 mg/kg/injection, schedule: Q04DX002 (ip), vehicle: saline with Tween-80
[15] = dose: 200.0 mg/kg/injection, schedule: Q04DX002 (ip), vehicle: saline with Tween-80
[16] = dose: 200.0 mg/kg/injection, schedule: Q01DX005 (ip), vehicle: saline with Tween-80
[17] = dose: 12.5 mg/kg/injection, schedule: Q01DX009 (ip), vehicle: saline
[18] = dose: 25.0 mg/kg/injection, schedule: Q01DX009 (ip), vehicle: saline
[19] = dose: 50.0 mg/kg/injection, schedule: Q01DX009 (ip), vehicle: saline
[20] = dose: 200.0 mg/kg/injection, schedule: Q01DX009 (ip), vehicle: saline
[21] = dose: 25.0 mg/kg/injection, schedule: Q04DX002 (ip), vehicle: saline with Tween-80
[22] = dose: 100.0 mg/kg/injection, schedule: Q01DX001 (ip), vehicle: saline with Tween-80
[23] = dose: 200.0 mg/kg/injection, schedule: Q01DX001 (ip), vehicle: saline with Tween-80

Structure (SMILES): OC(CCl)COn1nnc2ccccc21 (centres undefined)
- T/C [1]: 100 % of control
- T/C [2]: 102 % of control
- T/C [3]: 100 % of control
- T/C [4]: 98 % of control
- T/C (dose: 200.0 mg/kg/injection, schedule: Q04DX003 (ip), vehicle: saline with Tween-80): 99 % of control
- T/C (dose: 400.0 mg/kg/injection, schedule: Q04DX003 (ip), vehicle: saline with Tween-80): 94 % of control

Structure (SMILES): COc1nc2c(ccn2C2OC(COC(C)=O)C(OC(C)=O)C(OC(C)=O)C2OC(C)=O)c(=O)n1C (centres undefined)
- T/C [5]: 100 % of control
- T/C [6]: 104 % of control
- T/C [7]: 95 % of control

Structure (SMILES): COc1ccccc1/C(C)=N/O
- T/C [5]: 100 % of control
- T/C [6]: 95 % of control
- T/C [7]: 103 % of control

Structure (SMILES): CCC(=O)C[N+]12CCN(CC1)CC2
- T/C (dose: 25.0 mg/kg/injection, schedule: Q04DX002 (ip), vehicle: Klucel (hydroxypropylcellulose) (HPC)): 105 % of control
- T/C (dose: 50.0 mg/kg/injection, schedule: Q04DX002 (ip), vehicle: Klucel (hydroxypropylcellulose) (HPC)): 104 % of control

Structure (SMILES): CC(=O)OCC(O)CS(=O)c1ccc(C)cc1 (centres undefined)
- T/C (dose: 25.0 mg/kg/injection, schedule: Q01DX009 (ip), vehicle: saline with Tween-80): 100 % of control
- T/C [8]: 99 % of control
- T/C [9]: 98 % of control

Structure (SMILES): CC(Cc1ccccc1)N(C)Cc1ccc(-c2ccccc2)o1 (centres undefined)
- T/C [5]: 100 % of control
- T/C [6]: 108 % of control
- T/C [7]: 109 % of control

Structure (SMILES): CC1(Cc2ccccc2)NC(=O)NC1=O (centres undefined)
- T/C [10]: 100 % of control
- T/C [11]: 104 % of control
- T/C [12]: 105 % of control

Structure (SMILES): CCOC(=O)c1cc2c(nn3c(C)cccc23)n(CC)c1=N
- T/C (dose: 3.12 mg/kg/injection, schedule: Q01DX001 (ip), vehicle: saline): 100 % of control and 101 % of control
- T/C (dose: 6.25 mg/kg/injection, schedule: Q01DX001 (ip), vehicle: saline): 101 % of control and 105 % of control
- T/C (dose: 12.5 mg/kg/injection, schedule: Q01DX001 (ip), vehicle: saline): 100 % of control and 98 % of control
- T/C (dose: 25.0 mg/kg/injection, schedule: Q01DX001 (ip), vehicle: saline): 103 % of control and 93 % of control

Structure (SMILES): O=c1c2c([nH]c3c4c(ccc13)NCCC4)CCC2
- T/C [13]: 95 % of control
- T/C [14]: 94 % of control
- T/C [15]: 92 % of control

Structure (SMILES): CCCCOC(=O)/C=C(\Br)C(=O)OCCCC
- T/C [8]: 114 % of control
- T/C [9]: 124 % of control

Structure (SMILES): CC(=O)N(O)c1ccc2c(c1)Cc1cc(F)ccc1-2
- T/C [2]: 110 % of control and 121 % of control
- T/C [3]: 120 % of control
- T/C [16]: 123 % of control
- T/C (dose: 400.0 mg/kg/injection, schedule: Q01DX005 (ip), vehicle: saline with Tween-80): 116 % of control

Structure (SMILES): CC1(C)c2ccccc2-c2nc3ccccc3cc2C1(Br)Br
- T/C [2]: 105 % of control
- T/C [3]: 110 % of control
- T/C [16]: 120 % of control

Structure (SMILES): CC1CC2OC(/C=C/C=C/C=C\C=C\C=C\C(O)=C3\C(=O)C(C(C)C)N(C)C3=O)C(O)C2O1 (centres undefined)
- T/C (dose: 3.0 mg/kg/injection, schedule: Q01DX005 (ip), vehicle: Klucel (hydroxypropylcellulose) (HPC)): 120 % of control and 124 % of control

Structure (SMILES): C[OH2+].[Cl][Cu+].[Cl][Cu+].[NH-]CCC([OH2+])CC[NH-]
- T/C (dose: 1.56 mg/kg/injection, schedule: Q01DX005 (ip), vehicle: Klucel (hydroxypropylcellulose) (HPC)): 96 % of control
- T/C (dose: 3.12 mg/kg/injection, schedule: Q01DX005 (ip), vehicle: Klucel (hydroxypropylcellulose) (HPC)): 103 % of control
- T/C (dose: 6.25 mg/kg/injection, schedule: Q01DX005 (ip), vehicle: Klucel (hydroxypropylcellulose) (HPC)): 106 % of control and 91 % of control

Structure (SMILES): Nc1nc2c(ncn2C2OC(CO)C(O)C2O)c(=O)[nH]1.Nc1nc2c(ncn2C2OC(CO)C(O)C2O)c(=O)[nH]1.[NH2-].[NH2-].[Pt+2] (centres undefined)
- T/C (dose: 6.25 mg/kg/injection, schedule: Q01DX009 (ip), vehicle: saline): 101 % of control
- T/C [17]: 100 % of control and 108 % of control
- T/C [18]: 100 % of control and 107 % of control
- T/C [19]: 100 % of control and 113 % of control and 107 % of control
- T/C (dose: 50.0 mg/kg/injection, schedule: Q01DX009 (ip), vehicle: water): 175 % of control
- T/C (dose: 50.0 mg/kg/injection, schedule: Q04DX003 (ip), vehicle: saline): 100 % of control
- T/C (dose: 100.0 mg/kg/injection, schedule: Q01DX009 (ip), vehicle: saline): 112 % of control and 121 % of control and 116 % of control
- T/C (dose: 100.0 mg/kg/injection, schedule: Q01DX009 (ip), vehicle: water): 174 % of control
- T/C (dose: 100.0 mg/kg/injection, schedule: Q04DX003 (ip), vehicle: saline): 120 % of control
- T/C [20]: 163 % of control and 177 % of control
- T/C (dose: 200.0 mg/kg/injection, schedule: Q04DX003 (ip), vehicle: saline): 110 % of control
- T/C (dose: 400.0 mg/kg/injection, schedule: Q01DX009 (ip), vehicle: saline): 224 % of control and 227 % of control

Structure (SMILES): COc1cc(N(C)C)c(OC)cc1/C=C\c1ccnc2ccccc12
- T/C [4]: 111 % of control

Structure (SMILES): Cc1cnc2c([N+](=O)[O-])cc(C)c(C)c2c1
- T/C [8]: 99 % of control
- T/C [9]: 99 % of control
- T/C (dose: 200.0 mg/kg/injection, schedule: Q01DX009 (ip), vehicle: saline with Tween-80): 92 % of control

Structure (SMILES): NCCN1C(=O)C2C3CCC(O3)C2C1=O (centres undefined)
- T/C [5]: 96 % of control
- T/C [6]: 98 % of control
- T/C [7]: 107 % of control

Structure (SMILES): CC(C)=CCC/C(C)=C/CC/C(C)=C/CC/C=C(\C)CC/C=C(\C)CCC[N+](C)(C)[O-]
- T/C (dose: 60.0 mg/kg/injection, schedule: Q01DX005 (ip), vehicle: saline): 101 % of control
- T/C (dose: 120.0 mg/kg/injection, schedule: Q01DX005 (ip), vehicle: saline): 101 % of control
- T/C (dose: 240.0 mg/kg/injection, schedule: Q01DX005 (ip), vehicle: saline): 99 % of control

Structure (SMILES): Cc1cc(NCCCN(C)C)c2ccc3cc4ccccc4cc3c2n1
- T/C [21]: 93 % of control
- T/C [13]: 92 % of control
- T/C [14]: 108 % of control and 94 % of control

Structure (SMILES): Nc1cccc(OCCOc2cccc(S(=O)(=O)F)c2)c1
- T/C (dose: 50.0 mg/kg/injection, schedule: Q01DX001 (ip), vehicle: saline with Tween-80): 109 % of control
- T/C [22]: 100 % of control
- T/C [23]: 100 % of control

Structure (SMILES): O=S1(=O)C2C=CCCC1C=C2 (centres undefined)
- T/C [17]: 92 % of control
- T/C [18]: 96 % of control
- T/C [19]: 100 % of control
- T/C [20]: 100 % of control

Structure (SMILES): O=C1Nc2ccccc2/C1=N/N=C/c1ccccc1Cl
- T/C [10]: 99 % of control and 88 % of control
- T/C [11]: 86 % of control and 97 % of control
- T/C [12]: 96 % of control

Structure (SMILES): O=C1OC2=C(CCCc3ccccc32)C(N(c2ccccc2)c2ccccc2)C1(Cl)Cl (centres undefined)
- T/C [10]: 96 % of control
- T/C [11]: 88 % of control
- T/C [12]: 89 % of control

Structure (SMILES): N#Cc1c(N)nsc1N1CCOCC1
- T/C (dose: 12.5 mg/kg/injection, schedule: Q01DX005 (ip), vehicle: saline with Tween-80): 98 % of control
- T/C [1]: 104 % of control
- T/C [2]: 98 % of control

Structure (SMILES): O=C(c1ccccc1)C1C(=O)c2cc3c(cc2C1=O)C(=O)C(C(=O)c1ccccc1)C3=O
- T/C [21]: 99 % of control
- T/C [13]: 95 % of control
- T/C [14]: 95 % of control

Structure (SMILES): COc1cc(C=Nc2ccc(Cl)cc2)ccc1N(CCCl)CCCl
- T/C (dose: 0.44 mg/kg/injection, schedule: Q01DX009 (ip), vehicle: saline with Tween-80): 100 % of control
- T/C (dose: 0.66 mg/kg/injection, schedule: Q01DX009 (ip), vehicle: saline with Tween-80): 100 % of control
- T/C (dose: 1.0 mg/kg/injection, schedule: Q01DX009 (ip), vehicle: saline with Tween-80): 109 % of control
- T/C (dose: 2.5 mg/kg/injection, schedule: Q01DX009 (ip), vehicle: saline with Tween-80): 95 % of control
- T/C (dose: 5.0 mg/kg/injection, schedule: Q01DX009 (ip), vehicle: saline with Tween-80): 157 % of control
- T/C (dose: 50.0 mg/kg/injection, schedule: Q04DX003 (ip), vehicle: saline with Tween-80): 204 % of control

Structure (SMILES): Cc1ccccc1N=Nc1c(O)n(-c2ccc(Br)cc2)c(=S)n(-c2ccccc2)c1=O
- T/C [22]: 98 % of control
- T/C [23]: 98 % of control
- T/C (dose: 400.0 mg/kg/injection, schedule: Q01DX001 (ip), vehicle: saline with Tween-80): 89 % of control

Structure (SMILES): CC(Cc1ccccc1)C(=O)Nc1ccccc1 (centres undefined)
- T/C [14]: 91 % of control
- T/C [15]: 94 % of control
- T/C (dose: 400.0 mg/kg/injection, schedule: Q04DX002 (ip), vehicle: saline with Tween-80): 91 % of control
